This note sets out measurements from ChEMBL document CHEMBL3297733, “Discovery and optimization of pyrrolo[1,2-a]pyrazinones leads to novel and selective inhibitors of PIM kinases” (Bioorg Med Chem, 2013).

Data set [1] has as its target Serine/threonine-protein kinase pim-1 (Homo sapiens, UniProt P11309). Kind of data set: Inhibition of human PIM1 using ARK-RERTYSFGHHA as substrate incubated for 60 mins prior to substrate addition by topcount scintillation counting analysis in presence of [P33gamma]-ATP.
Data set [2] can be described thus: Cytotoxicity against mouse BA/F3 cells overexpressing PIM1 after 72 hrs by CellTitre-Glo assay. To be noted: BaF3, 72 h. In kind it is functional, cell-based.
In data set [3] the target is Serine/threonine-protein kinase pim-2 (Homo sapiens, UniProt Q9P1W9). Description: Inhibition of human PIM2 using ARK-RERTYSFGHHA as substrate incubated for 60 mins prior to substrate addition by topcount scintillation counting analysis in presence of [P33gamma]-ATP.
A short description of data set [4]: Intrinsic clearance in human liver microsomes after 5 mins by LC-MS/MS analysis. In kind it is ADME. The conditions noted are these: read-out: CLH.
The nature of data set [5]: Apparent permeability from apical to basolateral side in human Caco2 cells after 120 mins by LC-MS/MS analysis. To be noted: Caco-2.
For data set [6], the target named is Cyclin-dependent kinase 2 (Homo sapiens, UniProt P24941). Kind of data set: Inhibition of CDK2 (unknown origin).
Data set [7] deals with Glycogen synthase kinase-3 beta (Homo sapiens, UniProt P49841). Kind of data set: Inhibition of GSK3beta (unknown origin).
The target of data set [8] is Cell division cycle 7-related protein kinase (Homo sapiens, UniProt O00311). Description: Inhibition of CDC7 (unknown origin).
The next data set has as its target Casein kinase II (Homo sapiens, UniProt P19784+P67870+P68400). Description: Inhibition of CK2 (unknown origin). In kind it is protein-complex assay.
Data set [9] is described as follows: Apparent permeability by PAMPA. In kind it is physicochemical.
Data set [10] in a line: Thermodynamic aqueous solubility of the compound at pH 7. In kind it is physicochemical. The conditions noted are these: buffer.
The target in data set [11] is Platelet-derived growth factor receptor (Homo sapiens, UniProt P09619+P16234). Description: Inhibition of PDGFR (unknown origin). In kind it is protein-complex assay.

Sequence of Serine/threonine-protein kinase pim-2 (Q9P1W9 whole entry): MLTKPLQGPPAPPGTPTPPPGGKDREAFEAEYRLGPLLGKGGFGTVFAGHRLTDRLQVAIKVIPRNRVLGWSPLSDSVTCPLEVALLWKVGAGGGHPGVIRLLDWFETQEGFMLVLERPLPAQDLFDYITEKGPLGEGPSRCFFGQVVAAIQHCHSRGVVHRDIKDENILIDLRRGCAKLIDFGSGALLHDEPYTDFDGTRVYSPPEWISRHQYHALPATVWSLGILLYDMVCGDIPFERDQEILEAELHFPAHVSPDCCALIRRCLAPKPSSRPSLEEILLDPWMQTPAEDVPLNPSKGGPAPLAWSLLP
Sequence of Serine/threonine-protein kinase pim-1 (P11309 whole entry): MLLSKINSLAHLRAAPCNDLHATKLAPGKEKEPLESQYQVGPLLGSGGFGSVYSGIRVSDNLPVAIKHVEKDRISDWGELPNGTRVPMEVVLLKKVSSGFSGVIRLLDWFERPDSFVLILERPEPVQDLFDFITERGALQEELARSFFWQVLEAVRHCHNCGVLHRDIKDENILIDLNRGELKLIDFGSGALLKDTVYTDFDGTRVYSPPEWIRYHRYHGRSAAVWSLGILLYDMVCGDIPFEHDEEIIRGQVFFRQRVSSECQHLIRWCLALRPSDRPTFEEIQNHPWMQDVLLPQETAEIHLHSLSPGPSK
Sequence of Glycogen synthase kinase-3 beta (P49841 whole entry): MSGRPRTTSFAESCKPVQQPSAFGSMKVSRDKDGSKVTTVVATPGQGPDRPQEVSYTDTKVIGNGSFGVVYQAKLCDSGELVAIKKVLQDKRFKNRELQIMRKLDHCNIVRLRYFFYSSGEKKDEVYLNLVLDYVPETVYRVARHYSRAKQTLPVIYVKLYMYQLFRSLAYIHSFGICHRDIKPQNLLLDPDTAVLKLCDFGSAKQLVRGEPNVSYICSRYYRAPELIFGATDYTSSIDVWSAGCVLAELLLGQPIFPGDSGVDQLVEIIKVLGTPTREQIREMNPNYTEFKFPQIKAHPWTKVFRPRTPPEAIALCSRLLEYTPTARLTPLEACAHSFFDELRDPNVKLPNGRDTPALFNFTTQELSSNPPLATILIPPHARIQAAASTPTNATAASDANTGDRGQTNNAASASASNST
Sequence of Casein kinase II (P67870 whole entry): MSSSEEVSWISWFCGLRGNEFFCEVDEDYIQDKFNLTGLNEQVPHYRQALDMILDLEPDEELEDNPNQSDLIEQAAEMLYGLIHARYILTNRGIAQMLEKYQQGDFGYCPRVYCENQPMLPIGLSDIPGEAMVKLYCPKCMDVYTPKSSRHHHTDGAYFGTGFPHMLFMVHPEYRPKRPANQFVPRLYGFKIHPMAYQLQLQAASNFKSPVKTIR
Sequence of Casein kinase II (P68400 whole entry): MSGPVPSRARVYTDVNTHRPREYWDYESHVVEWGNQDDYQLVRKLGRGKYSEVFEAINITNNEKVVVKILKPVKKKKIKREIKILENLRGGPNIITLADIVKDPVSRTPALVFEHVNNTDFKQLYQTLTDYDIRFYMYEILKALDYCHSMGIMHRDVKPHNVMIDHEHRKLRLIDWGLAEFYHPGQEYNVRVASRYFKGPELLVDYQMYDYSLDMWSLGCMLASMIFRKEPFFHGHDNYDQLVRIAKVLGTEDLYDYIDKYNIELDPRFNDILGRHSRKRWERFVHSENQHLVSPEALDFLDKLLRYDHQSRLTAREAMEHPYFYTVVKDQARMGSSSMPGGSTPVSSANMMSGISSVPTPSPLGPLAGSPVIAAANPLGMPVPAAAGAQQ
Sequence of Casein kinase II (P19784 whole entry): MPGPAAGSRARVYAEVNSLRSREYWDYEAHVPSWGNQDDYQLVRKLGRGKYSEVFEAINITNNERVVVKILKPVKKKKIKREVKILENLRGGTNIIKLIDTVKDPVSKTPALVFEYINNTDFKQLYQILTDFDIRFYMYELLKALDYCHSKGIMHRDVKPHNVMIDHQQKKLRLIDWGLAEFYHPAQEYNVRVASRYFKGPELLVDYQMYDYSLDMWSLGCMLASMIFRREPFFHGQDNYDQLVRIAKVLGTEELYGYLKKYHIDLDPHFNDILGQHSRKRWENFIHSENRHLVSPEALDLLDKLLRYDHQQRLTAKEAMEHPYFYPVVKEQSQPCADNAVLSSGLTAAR
Sequence of Cell division cycle 7-related protein kinase (O00311 whole entry): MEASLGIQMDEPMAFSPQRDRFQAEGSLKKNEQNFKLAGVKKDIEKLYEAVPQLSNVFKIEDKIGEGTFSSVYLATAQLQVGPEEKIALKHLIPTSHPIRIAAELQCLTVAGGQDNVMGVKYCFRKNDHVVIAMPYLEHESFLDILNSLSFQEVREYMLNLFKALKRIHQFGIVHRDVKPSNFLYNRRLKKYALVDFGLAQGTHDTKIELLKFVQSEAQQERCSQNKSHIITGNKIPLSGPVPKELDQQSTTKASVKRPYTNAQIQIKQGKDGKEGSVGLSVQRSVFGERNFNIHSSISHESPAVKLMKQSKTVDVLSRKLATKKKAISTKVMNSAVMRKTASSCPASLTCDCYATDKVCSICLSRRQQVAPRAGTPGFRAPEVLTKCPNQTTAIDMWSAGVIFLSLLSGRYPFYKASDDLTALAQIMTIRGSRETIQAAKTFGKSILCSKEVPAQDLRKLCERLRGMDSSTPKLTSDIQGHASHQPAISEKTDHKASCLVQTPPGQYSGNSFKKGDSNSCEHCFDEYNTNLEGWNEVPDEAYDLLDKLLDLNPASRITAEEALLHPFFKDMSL

Consider `O=C(CC1CNC(=O)c2cc(-c3cccc(C(F)(F)F)c3)cn21)NCC1CCCCC1` (racemic), for which the IC50 in data set [1] worked out at 375 nM.
For `O=C(CC1CNC(=O)c2cc(-c3ccc(F)c(F)c3)cn21)NCc1ccco1` (racemic), the IC50 worked out at 3640 nM in data set [2] and 125 nM in data set [1].
`C[C@@H](CN1CCN(C)CC1)NC(=O)C[C@H]1CNC(=O)c2cc(-c3cccc(Cl)c3)cn21`: the IC50 was 530 nM in [1] and greater than 5000 nM in data set [3].
On to `CC(C)(C)CNC(=O)CC1CNC(=O)c2cc(-c3ccccc3F)cn21` (racemic), for which, in [1], the IC50 turned out to be 1720 nM.
For the molecule `CN1CCN(C[C@@H](NC(=O)C[C@H]2CNC(=O)c3cc(-c4cccc(F)c4)cn32)C2CCCCC2)CC1`, the IC50 turned out to be 490 nM in [2], 9 nM in [1] and 150 nM in data set [3]. Besides, the CLint scaled in data set [4] came to 6.7 mL/min/kg.
For the molecule `CC(C)(C)CNC(=O)CC1CNC(=O)c2cc(-c3cccc(F)c3)cn21` (racemic), the IC50 in data set [1] came out at 1940 nM.
As for `O=C(CC1CNC(=O)c2cc(-c3cccc(Cl)c3)cn21)NCc1ccco1` (racemic), the IC50 in data set [2] is 2430 nM. Besides, the CLint scaled in data set [4] worked out at 97.4 mL/min/kg. The Papp A→B at 2 h in data set [5] was found to be 33.1 ×10⁻⁶ cm/s.
With `O=C(CC1CNC(=O)c2cc(-c3cn[nH]c3)cn21)NCc1cccc(F)c1` (racemic), the IC50 in data set [6] came to 60 nM; in data set [1], 1100 nM; in data set [7], 386 nM; in [8], 284 nM.
Consider `CN1CCN(C[C@@H](NC(=O)C[C@H]2CNC(=O)c3cc(-c4ccc(F)c(F)c4)cn32)C2CCCCC2)CC1`, for which the IC50 amounted to 156 nM in data set [2], 26 nM in data set [1] and 250 nM in data set [3].
In the case of `O=C(C[C@H]1CNC(=O)c2cc(-c3cccc(F)c3)cn21)N[C@H](CO)c1ccccc1`, the IC50 turned out to be 3720 nM in [2] and 87 nM in [1]. Moreover, the CLint scaled in data set [4] amounted to 55 mL/min/kg. The Papp A→B at 2 h in data set [5] is 2.7 ×10⁻⁶ cm/s.
As to `O=C(CC1CNC(=O)c2cc(-c3cccc(C(F)(F)F)c3)cn21)NCC1CCOCC1` (racemic), the IC50 in data set [1] was determined as 838 nM; in [3], 3130 nM.
Consider `O=C(C[C@H]1CNC(=O)c2cc(-c3cccc(F)c3)cn21)N[C@H](CO)Cc1ccccc1`, for which the IC50 in data set [2] came out at 3050 nM; in data set [1], 141 nM. Besides, the CLint scaled in data set [4] was 87.8 mL/min/kg. Further, the apical-to-basolateral permeability (Papp A→B) at 2 h in data set [5] is 1.3 ×10⁻⁶ cm/s.
The matching figures for `NC[C@@H](NC(=O)C[C@H]1CNC(=O)c2cc(-c3cccc(F)c3)cn21)c1ccccc1`: greater than 10000 nM, 10 nM, 8.3 mL/min/kg and 0.6 ×10⁻⁶ cm/s.
As for `O=C(CC1CNC(=O)c2cc(-c3ccnc(Cl)n3)cn21)NCC1CCCCC1` (racemic), the IC50 is greater than 5000 nM in data set [2], 33 nM in data set [1] and 1320 nM in data set [3]. The CLint scaled in [4] turned out to be 197 mL/min/kg. The Papp A→B at 2 h in [5] stood at 0.9 ×10⁻⁶ cm/s.
In the case of `CN1CCN(C[C@@H](NC(=O)C[C@H]2CNC(=O)c3cc(-c4ccnc(F)c4)cn32)C2CCCCC2)CC1`, the IC50 in data set [2] stood at 2480 nM; in data set [1], 13 nM; in data set [3], 95 nM. Moreover, the Papp A→B at 2 h in data set [5] was 0.33 ×10⁻⁶ cm/s.
Turning to `CC(C)(C)CNC(=O)CC1CNC(=O)c2cc(-c3ccsc3)cn21` (racemic), the CLint scaled in data set [4] worked out at 81 mL/min/kg. Moreover, the IC50 (against Casein kinase II; in data set [11]) was greater than 10000 nM throughout. Besides, in [9], the Papp worked out at 48 ×10⁻⁶ cm/s. In data set [10], this molecule gave a Therm_solubility of 68 mg/mL.
Consider `O=C(CC1CNC(=O)c2cc(-c3cc(Cl)ccc3F)cn21)NCc1ccco1` (racemic), for which the results for the IC50 in [1] and in data set [3] were 132 nM and 2410 nM, respectively.
As for `CC(C)(C)CNC(=O)CC1CNC(=O)c2cc(-c3cccc(C(F)(F)F)c3)cn21` (racemic), in [1], the IC50 stood at 521 nM.
The molecule `O=C(CC1CNC(=O)c2cc(-c3cccc(F)c3)cn21)NCC1CCCCC1` (racemic) displayed an IC50 in [2] of 1110 nM. Further, the CLint scaled in data set [4] turned out to be 48.5 mL/min/kg. The Papp A→B at 2 h in data set [5] was determined as 11.2 ×10⁻⁶ cm/s.
For `CN1CCN(C[C@@H](NC(=O)C[C@H]2CNC(=O)c3cc(-c4cccc(Cl)c4)cn32)C(C)(C)C)CC1`, the IC50 in data set [1] was 5 nM; in [3], 262 nM.
Turning to `CC(C)(C)CNC(=O)CC1CNC(=O)c2cc(-c3ccncc3)cn21` (racemic), the IC50 worked out at 5470 nM in data set [1] and 4610 nM in [7].
Consider `O=C(CC1CNC(=O)c2cc(-c3ccc(F)c(F)c3)cn21)NCC1CCCCC1` (racemic), for which the IC50 in data set [2] is 1270 nM; in data set [1], 94 nM. In addition, the CLint scaled in data set [4] was 400 mL/min/kg. Moreover, the Papp A→B at 2 h in data set [5] was 11.8 ×10⁻⁶ cm/s.
Turning to `O=C(CC1CNC(=O)c2cc(-c3cccc(C(F)(F)F)c3)cn21)NCc1cccc(F)c1` (racemic), the IC50 in data set [1] was 614 nM.
As to `Cc1ccc(Cl)cc1-c1cc2n(c1)C(CC(=O)NCc1ccco1)CNC2=O` (racemic), the IC50 in data set [1] and in data set [3] was greater than 5000 nM each time.
Turning to `CC(C)(C)CNC(=O)CC1CNC(=O)c2cc(-c3ccc(F)cc3)cn21` (racemic), the IC50 in data set [1] was found to be 2550 nM.
Consider `O=C(C[C@H]1CNC(=O)c2cc(-c3cccc(F)c3)cn21)N[C@H](CO)C1CCCCC1`, for which the IC50 in data set [2] turned out to be 1530 nM; in data set [1], 16 nM. Moreover, in data set [4], the CLint scaled came out at 14.6 mL/min/kg. For the same molecule, the Papp A→B at 2 h in data set [5] was 1.1 ×10⁻⁶ cm/s.
Regarding `CC(C)(C)CNC(=O)CC1CNC(=O)c2cc(-c3ccc(OC(F)(F)F)cc3)cn21` (racemic), the IC50 in [1] is greater than 10000 nM.
`CN1CCN(C[C@@H](NC(=O)C[C@H]2CNC(=O)c3cc(-c4cc(Cl)ccc4F)cn32)C2CCCCC2)CC1` came in with an IC50 in data set [2] of 147 nM.
The molecule `NC[C@@H](NC(=O)C[C@H]1CNC(=O)c2cc(-c3ccnc(F)c3)cn21)c1ccccc1` gave an IC50 in data set [2] greater than 10000 nM. For the same molecule, the CLint scaled in data set [4] is 6.5 mL/min/kg. Further, in [5], the Papp A→B at 2 h turned out to be 0.9 ×10⁻⁶ cm/s.
Regarding `NC[C@@H](NC(=O)C[C@H]1CNC(=O)c2cc(-c3cccc(F)c3)cn21)C1CCCCC1`, the IC50 in data set [2] was greater than 10000 nM; in data set [1] it was 12 nM; in data set [3], 275 nM. Moreover, in [4], the CLint scaled was determined as 10.1 mL/min/kg. In addition, in data set [5], the Papp A→B at 2 h stood at 0.8 ×10⁻⁶ cm/s.
In the case of `CC(C)(C)CNC(=O)CC1CNC(=O)c2cc(-c3cccc(OC(F)(F)F)c3)cn21` (racemic), the IC50 in [1] came to 1270 nM.
Same read-out and setting: under `CC(C)(C)CNC(=O)CC1CNC(=O)c2cc(-c3ccccc3)cn21` (racemic) stands 2540 nM.
Take `CN(C)C1CCN(C[C@@H](NC(=O)C[C@H]2CNC(=O)c3cc(-c4cccc(Cl)c4)cn32)C2CCCCC2)CC1`: the IC50 in data set [2] turned out to be 480 nM. Also, in [4], the CLint scaled is 5 mL/min/kg. The apical-to-basolateral permeability (Papp A→B) at 2 h in data set [5] worked out at 1.01 ×10⁻⁶ cm/s.
As for `O=C(CC1CNC(=O)c2cc(-c3ccccc3F)cn21)NCC1CCCCC1` (racemic), the IC50 in data set [2] stood at 1790 nM; in data set [1] it was 124 nM. In data set [4], the CLint scaled turned out to be 400 mL/min/kg. Also, in data set [5], the Papp A→B at 2 h was 11.9 ×10⁻⁶ cm/s.
As for `CN1CCN(C(=O)C[C@H]2CNC(=O)c3cc(-c4cccc(F)c4)cn32)[C@@H](c2ccccc2)C1`, the IC50 in data set [1] turned out to be 233 nM.
